The test system of this data set is CCRIS mutagenicity, Ames/micronucleus/aberration tests. Put plainly: CCRIS mutagenicity studies.

Data on two compounds can be found in PubChem BioAssay AID1259407 (Chemical Carcinogenesis Research Information System (CCRIS), 2018).

Activity calls are given as the source filed them. No rule for the calls is given here.

`O=C(S)c1ccccc1`: the mutagenic call was “inactive; negative” (Test System: AMES SALMONELLA TYPHIMURIUM, Strain/Indicator: TA98, Metabolic Activation: NONE, Method: PREINCUBATION); “inactive; negative” (Test System: AMES SALMONELLA TYPHIMURIUM, Strain/Indicator: TA98, Metabolic Activation: RAT LIVER S-9, PHENOBARBITAL AND BETA-NAPHTHOFLAVONE, Method: PREINCUBATION); “inactive; negative” (Test System: AMES SALMONELLA TYPHIMURIUM, Strain/Indicator: TA100, Metabolic Activation: NONE, Method: PREINCUBATION); “inactive; negative” (Test System: AMES SALMONELLA TYPHIMURIUM, Strain/Indicator: TA100, Metabolic Activation: RAT LIVER S-9, PHENOBARBITAL AND BETA-NAPHTHOFLAVONE, Method: PREINCUBATION); “inactive; negative” (Test System: AMES SALMONELLA TYPHIMURIUM, Strain/Indicator: TA102, Metabolic Activation: NONE, Method: PREINCUBATION); “inactive; negative” (Test System: AMES SALMONELLA TYPHIMURIUM, Strain/Indicator: TA102, Metabolic Activation: RAT LIVER S-9, PHENOBARBITAL AND BETA-NAPHTHOFLAVONE, Method: PREINCUBATION). For the same compound, the mutagenic call was “inactive; negative” (Test System: AMES SALMONELLA TYPHIMURIUM, Strain/Indicator: TA104, Metabolic Activation: NONE, Method: PREINCUBATION); “inactive; negative” (Test System: AMES SALMONELLA TYPHIMURIUM, Strain/Indicator: TA104, Metabolic Activation: RAT LIVER S-9, PHENOBARBITAL AND BETA-NAPHTHOFLAVONE, Method: PREINCUBATION); “inactive; negative” (Test System: AMES SALMONELLA TYPHIMURIUM, Strain/Indicator: TA1535, Metabolic Activation: NONE, Method: PREINCUBATION); “inactive; negative” (Test System: AMES SALMONELLA TYPHIMURIUM, Strain/Indicator: TA1535, Metabolic Activation: RAT LIVER S-9, PHENOBARBITAL AND BETA-NAPHTHOFLAVONE, Method: PREINCUBATION); “inactive; negative” (Test System: AMES SALMONELLA TYPHIMURIUM, Strain/Indicator: TA1537, Metabolic Activation: NONE, Method: PREINCUBATION); “inactive; negative” (Test System: AMES SALMONELLA TYPHIMURIUM, Strain/Indicator: TA1537, Metabolic Activation: RAT LIVER S-9, PHENOBARBITAL AND BETA-NAPHTHOFLAVONE, Method: PREINCUBATION). The mutagenic call (Test System: E.COLI, Strain/Indicator: WP2UVRA/PKM101, Metabolic Activation: NONE, Method: PREINCUBATION) was “inactive; negative”; the mutagenic call (Test System: E.COLI, Strain/Indicator: WP2UVRA/PKM101, Metabolic Activation: RAT LIVER S-9, PHENOBARBITAL AND BETA-NAPHTHOFLAVONE, Method: PREINCUBATION) is “inactive; negative”; the mutagenic call (Test System: E.COLI, Strain/Indicator: WP2UVRA, Metabolic Activation: NONE, Method: PREINCUBATION) is “inactive; negative”; the mutagenic call (Test System: E.COLI, Strain/Indicator: WP2UVRA, Metabolic Activation: RAT LIVER S-9, PHENOBARBITAL AND BETA-NAPHTHOFLAVONE, Method: PREINCUBATION) is “inactive; negative”.
Regarding `CN(C)c1ccc(N=O)cc1`, the mutagenic call (Test System: AMES SALMONELLA TYPHIMURIUM, Strain/Indicator: TA100, Metabolic Activation: NONE, Method: FLUCTUATION TEST) was “active; positive”.
